Test results taken from patent US5854252A, “Dihalotriazolopyrimidine derivatives” (Shell Internationale Research Maatschappij B.V., priority 1993, dated 1998).
≈ marks a conversion by molar mass, not a printed value.

How the values were obtained:
[1] = test system: Pseudocercosporella herpotrichoides; test: MIC by serial dilution, Example 55, Pseudocercosporella herpotrichoides; assay type: cell-based; conditions: Oculimacula yallundae; microtitre plates, 20° C., 6-8 days
Description: (§1) The MIC (Minimum Inhibition Concentration)-values were determined by serial dilution tests using 48-well microtitre plates. The dilution of the test compounds in the nutrient solution and the distribution to the wells were carried out by a TECAN RSP 5000 robotic sample processor.
(§2) For preparation of the nutrient solution, V8 juice (Trade Mark) was neutralised with calcium carbonate and centrifuged. The supernatant was diluted with distilled water (1:5) to the final concentration.
(§3) The fungi (Alternaria solani, Botrytis cinerea, Pseudocercosporella herpotrichoides, Micronectriella nivalis, Gaeumannomyces graminis) were added into the wells as a droplet of spore suspension. The microtitre plates were then incubated at 20° C. for 6-8 days. The MIC-value, which was defined to be the lowest concentration in the dilution series without mycelial growth, was determined by visual inspection of the plates.

Gaeumannomyces graminis = test: MIC by serial dilution, Example 55, Gaeumannomyces graminis; assay type: cell-based; conditions: microtitre plates, 20° C., 6-8 days
Description: as §1, §2, §3

Micronectriella nivalis = test: MIC by serial dilution, Example 55, Micronectriella nivalis; assay type: cell-based; conditions: microtitre plates, 20° C., 6-8 days
Description: as §1, §2, §3

[2] = test system: Pseudocercosporella herpotrichoides; test: Activity against wheat eyespot in-vitro (PHI), Example 53(j); assay type: cell-based; conditions: 50 ppm, 12 days at 20° C.
Description: This test measures the in vitro activity of compounds against the fungus causing wheat eyespot. The test compound is dissolved or suspended in acetone and is added into 4 ml aliquots of half strength Potato Dextrose Broth dispensed in 25-compartment petri dishes to give a final concentration of 50 ppm compound and 2.5% acetone. Each compartment is inoculated with a 6 mm diameter plug of agar/mycelium taken from a 14 day old culture of P. herpotrichoides. Plates are incubated at 20° C. for 12 days until the assessment of mycelial growth. The extent of disease control in all the above tests is expressed as a rating compared with either an untreated control or a diluent-sprayed-control, according to the criteria: […]

Alternaria solani [3] = test: MIC in the serial dilution test, Example 56, Alternaria solani; assay type: cell-based; conditions: microtiter serial dilution, 6-12 days
Description: (§4) The serial dilution test was carried out using Microtiter test with 24 or 48 wells per plate. The test compounds were used a 1000 μg/ml aqueous stock suspension containing 20% acetone which was then sterile filtered in a 0.2μ filter. The dilution of the sterile fungicide suspension with the nutrient solution and the subsequent pipetting into the different wells was carried out using a TECAN RSP 5000 Robotic Sample Processor. The concentrations tested ranged from 100 μg/ml down to 0.05 μg/ml. 12 Dilution steps were made. The nutrient solution was chosen according to the nutrient requirements of the pathogen. The inoculum was added as a droplet (50 μl) of a spore suspension (5×10^8 /ml) into the wells. After 6-12 days incubation at suitable temperatures, the MIC value was determined by visual estimation. The lowest concentration in the dilution row without mycelial growth was defined as the MIC value.

Botrytis cinerea [4] = test: MIC in the serial dilution test, Example 56, Botrytis cinerea; assay type: cell-based; conditions: microtiter serial dilution, 6-12 days
Description: as §4

Rhizoctonia solani = test: MIC in the serial dilution test, Example 56, Rhizoctonia solani; assay type: cell-based; conditions: microtiter serial dilution, 6-12 days
Description: as §4

Botrytis cinerea [5] = test: MIC by serial dilution, Example 55, Botrytis cinerea; assay type: cell-based; conditions: microtitre plates, 20° C., 6-8 days
Description: as §1, §2, §3

Plasmopara viticola = test: Direct protectant activity against vine downy mildew (PVP), Example 53(c); assay type: in vivo; conditions: protectant foliar spray, 1000 ppm
Description: The test is a direct protectant one using a foliar spray. The lower surface of leaves of whole vine plants (cv Cabernet Sauvignon) are sprayed with the test compound at a dosage of 1000 ppm using an automated sprayline as described under (a), and after a subsequent period of 24 hours under normal glasshouse conditions the lower surfaces of the leaves are inoculated by spraying with an aqueous suspension containing 2.5×10^4 zoosporangia/ml. The inoculated plants are kept for 24 hours in a high humidity cabinet, 5 days under normal glasshouse conditions and then returned for a further 24 hours to high humidity. Assessment is based on the percentage of leaf area covered by sporulation compared with that on control leaves. The extent of disease control in all the above tests is expressed as a rating compared with either an untreated control or a diluent-sprayed-control, according to the criteria: […]

Alternaria solani [6] = test: MIC by serial dilution, Example 55, Alternaria solani; assay type: cell-based; conditions: microtitre plates, 20° C., 6-8 days
Description: as §1, §2, §3

Cercospora arachidicola = test: Field pot test with Cercospora arachidicola on peanuts; assay type: in vivo; conditions: Mycosphaerella arachidis, topical, 360 h, 500 μg/ml spray, 1000 l/ha, 15 days after treatment, Abbott formula, read-out: % efficacy Cercospora arachidicola
Description: 15 Seeds of peanuts were sown in pots filled with a soil substrate. When the plants have developed 4 true leaves (approx. 12-14 days after seeding) the fungicides and the test compounds were applied using a hand sprayer. The test compounds were applied at a concentration of 500 μg/ml in a […] containing 10% acetone and 0.05% Triton X 155 in water. The total amount of […] corresponded to 1000 l/ha. Six replicates (pots) per treatment were used. 2 days after treatment the pots were exposed to peanut plants in the field on which the fungus, Cercospora arachidicola, had formed sporulating lesions. The assessment was carried out 15 days after treatment by estimating the percentage of infected leaf area. The % efficacy was calculated using the Abbott formula.

Puccinia arachidis = test: Field pot test with Puccinia arachidis on peanuts; assay type: in vivo; conditions: topical, 456 h, 500 μg/ml spray, 1000 l/ha, 19 days after treatment, Abbott formula, read-out: % efficacy Puccinia arachidis
Description: 15 seeds of peanuts were sown in pots filled with a soil substrate. When the plants have developed 4 true leaves the fungicides and the test compounds were applied using a hand sprayer. The test compounds were applied at a concentration of 500 μg/ml in a […] containing 10% acetone and 0.05% Triton X 155 in water. The total amount of […] corresponded to 1000 l/ha. Six replicates per treatment were used. 2 Days after treatment the pots were exposed to peanut plants in the field on which the fungus, Puccinia arachidis, had formed sporulating pustules on the leaves. The assessment was carried out 19 days after treatment by estimating the percentage of infected leaf area. The % efficacy was calculated using the Abbott formula.

Leptosphaeria nodorum = test: Activity against wheat leafspot (LN), Example 53(f); assay type: in vivo; conditions: therapeutic foliar spray, 1000 ppm
Description: The test is a direct therapeutic one, using a foliar spray. Leaves of wheat plants (cv Norman), at the single leaf stage, are inoculated by spraying with an aqueous suspension containing 1×10^6 spores/ml. The inoculated plants are kept for 24 hours in a high humidity compartment prior to treatment. The plants are sprayed with a solution of the test compound at a dosage of 1000 ppm using an automated sprayline as described under (a). After drying, the plants are kept for 6-8 days at 22° C. and moderate humidity, followed by assessment. Assessment is based on the density of lesions per leaf compared with that on leaves of control plants. The extent of disease control in all the above tests is expressed as a rating compared with either an untreated control or a diluent-sprayed-control, according to the criteria: […]

| Compound | MIC [1] [µg/mL] | MIC (Gaeumannomyces graminis) [µg/mL] | MIC (Micronectriella nivalis) [µg/mL] | Fungicidal Activity PHI (disease control rating) [2] | MIC (Botrytis cinerea [5]) [µg/mL] | further results |
| --- | --- | --- | --- | --- | --- | --- |
| Fc1cccc(-c2c(Cl)nc3ncnn3c2Cl)c1 [Example 17] | 25 (≈ 88.3 µM) | 0.78 (≈ 2.76 µM) | 12.5 (≈ 44.2 µM) | 2 (greater than 80% disease control) | – | – |
| Cc1cccc(Oc2c(Cl)nc3ncnn3c2Cl)c1 [Example 49] | – | – | – | – | – | MIC (Alternaria solani [3]): 25 µg/mL (≈ 84.7 µM); MIC (Botrytis cinerea [4]): 6.25 µg/mL (≈ 21.2 µM); MIC (Rhizoctonia solani): > 100 µg/mL |
| O=S(=O)(Cl)c1ccccc1-c1c(Cl)nc2ncnn2c1Cl [Example 6] | – | – | – | – | > 100 | – |
| Cc1cccc(C)c1Oc1c(Cl)nc2ncnn2c1Cl [Example 48] | – | – | – | – | – | MIC (Alternaria solani [3]): 25 µg/mL (≈ 80.9 µM); MIC (Botrytis cinerea [4]): > 100 µg/mL; MIC (Rhizoctonia solani): > 100 µg/mL |
| Cc1ccc(-c2c(Cl)nc3ncnn3c2Cl)cc1C [Example 31] | 12.5 (≈ 42.6 µM) | 0.78 (≈ 2.66 µM) | 3.13 (≈ 10.7 µM) | – | – | – |
| COc1cccc(-c2c(Cl)nc3ncnn3c2Cl)c1 [Example 4] | – | – | – | 2 (greater than 80% disease control) | – | Fungicidal Activity PVP (disease control rating) (Plasmopara viticola): 1 (about 50-80% disease control) |
| FC(F)(F)c1ccc(-c2c(Br)nc3ncnn3c2Br)cc1 [Example 42] | – | – | – | – | > 100 | MIC (Alternaria solani [6]): > 100 µg/mL |
| FC(F)(F)c1ccccc1-c1c(Br)nc2ncnn2c1Br [Example 44] | – | – | – | – | > 100 | MIC (Alternaria solani [6]): > 100 µg/mL |
| Fc1cccc(-c2c(Br)nc3ncnn3c2Br)c1 [Example 43] | – | – | – | – | > 100 | MIC (Alternaria solani [6]): > 100 µg/mL |
| FC(F)(F)c1cccc(-c2c(Cl)nc3ncnn3c2Cl)c1 [Example 7] | – | – | – | 2 (greater than 80% disease control) | – | pest or weed control at 500 µg/mL (Cercospora arachidicola): 58%; pest or weed control at 500 µg/mL (Puccinia arachidis): 25% |
| Fc1ccc(-c2c(Cl)nc3ncnn3c2Cl)cc1 [Example 11] | 3.13 (≈ 11.1 µM) | 0.2 (≈ 0.706 µM) | 0.39 (≈ 1.38 µM) | 2 (greater than 80% disease control) | – | pest or weed control at 500 µg/mL (Cercospora arachidicola): 33%; pest or weed control at 500 µg/mL (Puccinia arachidis): 25% |
| CCOc1ccc(-c2c(Cl)nc3ncnn3c2Cl)cc1 [Example 3] | 6.25 (≈ 20.2 µM) | 0.2 (≈ 0.647 µM) | 0.78 (≈ 2.52 µM) | – | – | – |
| FC(F)(F)Oc1ccc(-c2c(Cl)nc3ncnn3c2Cl)cc1 [Example 9] | 12.5 (≈ 35.8 µM) | 0.1 (≈ 0.286 µM) | 0.78 (≈ 2.23 µM) | 2 (greater than 80% disease control) | – | pest or weed control at 500 µg/mL (Cercospora arachidicola): 50%; pest or weed control at 500 µg/mL (Puccinia arachidis): 25% |
| Fc1cccc(Cl)c1-c1c(Br)nc2ncnn2c1Br [Example 41] | – | – | – | – | 25 (≈ 61.5 µM) | MIC (Alternaria solani [6]): 50 µg/mL (≈ 123 µM) |
| Fc1ccccc1-c1c(Cl)nc2ncnn2c1Cl [Example 16] | – | – | – | 2 (greater than 80% disease control) | – | pest or weed control at 500 µg/mL (Cercospora arachidicola): 50%; pest or weed control at 500 µg/mL (Puccinia arachidis): 42% |
| Clc1nc2ncnn2c(Cl)c1-c1ccc(OCc2ccccc2)cc1 [Example 15] | – | – | – | – | – | Fungicidal Activity LN (disease control rating) (Leptosphaeria nodorum): 1 (about 50-80% disease control) |
